According to US12195730B2, “High-throughput screening methods to identify small molecule targets” (A-Alpha Bio, Inc., priority 2020, dated 2025):

How the values were obtained:
[1] = target: interaction between FKBP12 and the FRB domain of TOR (Homo sapiens, UniProt P42345+P62942); assay: AlphaSeq yeast mating assay, effect of small molecule agonists on FKBP12/FRB interaction; details: FIG. 6B; increasing compound concentration correlates with increasing mating efficiency
[2] = test system: interaction of IKZF1 with mutant CRBN; assay: AlphaSeq assay, effect of thalidomide and analogs on mutant CRBN/IKZF1 interaction; type: cell-based; details: FIG. 7B
Excerpt: (§1) FIG. 7A is a schematic illustrating thalidomide, or its analogs, mediating the interaction between CRBN and IKZF1.

[3] = target: T1, interaction of IKZF1 with wild-type CRBN (Homo sapiens, UniProt Q96SW2); assay: AlphaSeq assay, effect of thalidomide and analogs on wild-type CRBN/IKZF1 interaction; type: cell-based; details: FIG. 7B
T1 construct: expressed in transfected cells; host or cells: recombinant haploid yeast cells (surface display)
T1 sequence (Q96SW2 whole entry): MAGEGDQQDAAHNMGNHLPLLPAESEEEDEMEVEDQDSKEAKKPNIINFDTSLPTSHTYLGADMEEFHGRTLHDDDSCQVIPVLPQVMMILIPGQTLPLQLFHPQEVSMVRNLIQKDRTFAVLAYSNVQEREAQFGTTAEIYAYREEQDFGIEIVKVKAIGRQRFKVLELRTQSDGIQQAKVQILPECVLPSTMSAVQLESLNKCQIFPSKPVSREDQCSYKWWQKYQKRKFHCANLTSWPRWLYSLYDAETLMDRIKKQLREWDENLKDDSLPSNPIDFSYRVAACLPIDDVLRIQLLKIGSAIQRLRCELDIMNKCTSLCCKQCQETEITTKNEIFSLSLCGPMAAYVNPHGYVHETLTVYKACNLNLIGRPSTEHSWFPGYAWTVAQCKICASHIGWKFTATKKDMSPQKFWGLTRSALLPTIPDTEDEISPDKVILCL
T1 sequence (Q13422 whole entry partner): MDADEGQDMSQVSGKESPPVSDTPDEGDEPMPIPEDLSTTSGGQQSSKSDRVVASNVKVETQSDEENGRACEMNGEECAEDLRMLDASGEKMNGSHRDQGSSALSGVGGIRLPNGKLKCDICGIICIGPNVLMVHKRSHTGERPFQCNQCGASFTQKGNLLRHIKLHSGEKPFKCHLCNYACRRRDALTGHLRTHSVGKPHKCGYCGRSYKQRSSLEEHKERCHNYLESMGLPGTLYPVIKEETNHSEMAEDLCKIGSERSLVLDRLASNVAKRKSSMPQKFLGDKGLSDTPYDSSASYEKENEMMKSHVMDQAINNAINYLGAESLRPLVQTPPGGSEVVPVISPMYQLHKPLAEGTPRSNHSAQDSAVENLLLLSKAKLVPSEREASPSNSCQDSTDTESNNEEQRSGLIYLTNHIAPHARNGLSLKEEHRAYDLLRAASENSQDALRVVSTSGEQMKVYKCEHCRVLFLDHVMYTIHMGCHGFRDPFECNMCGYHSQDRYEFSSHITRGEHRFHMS
Excerpt: as §1

interaction between FKBP12 and the FRB domain of TOR, sequence (P62942 whole entry, the tested form may be a part): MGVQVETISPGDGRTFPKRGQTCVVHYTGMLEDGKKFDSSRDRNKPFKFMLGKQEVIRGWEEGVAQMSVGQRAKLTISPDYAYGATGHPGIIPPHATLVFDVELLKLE
interaction between FKBP12 and the FRB domain of TOR, sequence (P42345 2012-2144 limits assumed): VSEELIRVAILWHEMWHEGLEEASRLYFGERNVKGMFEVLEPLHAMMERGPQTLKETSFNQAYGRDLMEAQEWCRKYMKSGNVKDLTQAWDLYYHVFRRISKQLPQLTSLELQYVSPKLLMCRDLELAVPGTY

| SMILES | effect on the interaction between FKBP12 and the FRB domain (mating efficiency) [1] | effect on the interaction of IKZF1 with mutant CRBN [2] | effect on the interaction of IKZF1 with wild-type CRBN [3] |
| --- | --- | --- | --- |
| CO[C@H]1C[C@@H]2CC[C@@H](C)[C@@](O)(O2)C(=O)C(=O)N2CCCC[C@H]2C(=O)O[C@H]([C@H](C)C[C@@H]2CC[C@@H](OCCO)[C@H](OC)C2)CC(=O)[C@H](C)/C=C(\C)[C@@H](O)[C@@H](OC)C(=O)[C@H](C)C[C@H](C)/C=C/C=C/C=C/1C [everolimus] | agonistic effect | – | – |
| Nc1cccc2c1C(=O)N(C1CCC(=O)NC1=O)C2=O (stereo not drawn) [pomalidomide] | – | not mutant CRBN | agonistic effect |
| CO[C@H]1C[C@@H]2CC[C@@H](C)[C@@](O)(O2)C(=O)C(=O)N2CCCC[C@H]2C(=O)O[C@H]([C@H](C)C[C@@H]2CC[C@@H](OP(C)(C)=O)[C@H](OC)C2)CC(=O)[C@H](C)/C=C(\C)[C@@H](O)[C@@H](OC)C(=O)[C@H](C)C[C@H](C)/C=C/C=C/C=C/1C [ridaforolimus] | agonistic effect | – | – |
| O=C1CCC(N2C(=O)c3ccccc3C2=O)C(=O)N1 (stereo not drawn) [thalidomide] | – | not mutant CRBN | agonistic effect |
